Measurements published in patent US6506901B2, “Substituted 2-(S)-hydroxy-3-(piperidin-4-yl-methylamino)-propyl ethers and substituted 2-aryl-2-(R)-hydroxy-1-(piperidin-4-yl-methyl)-ethylamine β-3 adrenergic receptor agonists” (Wyeth, priority 2000, dated 2003).
Several values for one entry are separate records, joined by “and”; a condition that tells them apart may be missing. Identical values can stand only once.

Biological target: T1, human β3 receptors (Homo sapiens, UniProt P13945)
T1 construct: Full length β3 AR clones (402 amino acids) containing the last 6 amino acids of hβ3—AR; expressed in transfected cells; host or cells: CHO cells
T1 sequence (P13945 whole entry): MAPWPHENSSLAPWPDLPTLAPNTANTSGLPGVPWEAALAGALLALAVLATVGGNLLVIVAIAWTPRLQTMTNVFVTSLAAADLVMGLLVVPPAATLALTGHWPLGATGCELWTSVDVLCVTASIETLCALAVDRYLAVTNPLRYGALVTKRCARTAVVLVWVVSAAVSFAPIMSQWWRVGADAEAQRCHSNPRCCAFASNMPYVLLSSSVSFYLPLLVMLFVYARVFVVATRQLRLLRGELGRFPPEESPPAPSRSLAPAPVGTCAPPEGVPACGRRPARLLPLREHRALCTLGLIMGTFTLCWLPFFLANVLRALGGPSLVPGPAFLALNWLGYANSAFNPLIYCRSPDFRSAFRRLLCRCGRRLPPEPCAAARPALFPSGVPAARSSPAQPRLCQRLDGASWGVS
Assay: cAMP response (SPA) in CHO cells expressing cloned human β3 adrenergic receptor
Assay type: cell-based
Settings: for EC50: CHO cells expressing human β3 receptor, cAMP, 30 min incubation, 10^−9 M to 10^−5 M; for IA(β3): maximal response compared to the maximal response of isoproterenol at 10^−5 M
Method: Binding to the receptors was measured in Chinese Hamster ovary (CHO) cells that were transfected with adrenergic receptors.
Cloning of Human β3-AR Genomic DNA: cDNA was constructed by ligating four polymerase chain reaction (PCR) products using the following primers: an ATG-NarI fragment, sense primer 5′-[…]3′ and anti-sense primer 5′ […]3′; a NarI-AccI fragment, 5′ […]3′ as sense and 5′ […]3′ as anti-sense primer; an AccIi-StyI fragment, sense primer 5′ […]3′ and anti-sense primer 5′ […]3′ and a StyI-TAG fragment, with sense primer 5′ […]3′ and anti-sense primer 5′ […]3′. The corresponding primer sequences are described in Mantzoros, C. […] The four fragments are ligated into a pUC 18 plasmid (Gibco-BRL) and sequenced.
CHO cells were grown in 24-well tissue culture plates in Dulbecco's Modified Eagle Media with 10% fetal bovine serum, MEM non-essential amino acids, Penicillin-Streptompycin and Geneticin. […] Isoproterenol (10^−5 M) was used as an internal standard for comparison of activity. Cells were incubated at 37° C. on a rocker for 30 min with the β3 cells and 15 min for β1 and β2 cells. Incubation was stopped with the addition of 0.2N HCl and neutralized with 2.5N NaOH. The plates, containing the cells and neutralized media, were stored at −20 degrees celsius until ready to test for cAMP using the SPA test kit (Amersham).
Data Analysis and Results: Data collected from the SPA test procedure were analyzed as per cent of the maximal isoproterenol response at 10^−5 M. Activity curves were plotted using the SAS statistical and graphics software.

Row | SMILES | EC50 | IA(β3)
1 | CN1CCN(c2ccc(S(=O)(=O)N3CCC(CNC[C@H](O)COc4ccc(O)cc4)CC3)cc2)C1=O [Example 94, 1-[4-(4-{[2-Hydroxy-3-(4-hydroxy-phenoxy)-propylamino]-methyl}-piperidine-1-sulfonyl)-phenyl]-3-methyl-imidazolidin-2-one] | 510 nM | 0.76
2 | CCOC(=O)c1cc2ccccc2n1-c1ccc(S(=O)(=O)N2CCC(CNC[C@H](O)c3ccc(O)c(NS(C)(=O)=O)c3)CC2)cc1 [Example 95, 1-[4-(4-{[(2R)-2-Hydroxy-2-(4-hydroxy-3-methanesulfonylamino-phenyl)-ethyl-amino]-methyl}-piperidine-1-sulfonyl)-phenyl]-1H-indole-2-carboxalic Acid Ethyl Ester] | 125 nM | 0.82
3 | CCOC(=O)Cc1cn(-c2ccc(S(=O)(=O)N3CCC(CNC[C@H](O)c4ccc(O)c(NS(C)(=O)=O)c4)CC3)cc2)c2ccccc12 [Example 96, {1-[4-(4-{[(2R)-2-Hydroxy-2-(4-hydroxy-3-methanesulfonylamino-phenyl)-ethylamino]-methyl}-piperidine-1-sulfonyl)-phenyl]-1H-indol-3-yl}-acetic Acid Ethyl Ester] | 13 nM | 0.85
4 | CS(=O)(=O)Nc1cc([C@@H](O)CNCC2CCN(S(=O)(=O)c3ccc(-n4cc(CC(=O)O)c5ccccc54)cc3)CC2)ccc1O [Example 97, {1-[4-(4-{[(2R)-2-Hydroxy-2-(4-hydroxy-3-methanesulfonylamino-phenyl)-ethylamino]-methyl}-piperidine-1-sulfonyl)-phenyl]-1H-indol-3-yl}-acetic Acid] | 11 nM | 0.96
5 | CS(=O)(=O)Nc1cc([C@@H](O)CNCC2CCN(S(=O)(=O)c3ccc(-n4ccc5c(C(=O)O)cccc54)cc3)CC2)ccc1O [Example 99, 1-[4-(4-{[(2R)-2-Hydroxy-2-(4-hydroxy-3-methanesulfonylamino-phenyl)-ethylamino]-methyl}-piperidine-1-sulfonyl)-phenyl]-1H-indole-4-carboxylic Acid] | 9 nM | 1
6 | CS(=O)(=O)Nc1cc([C@@H](O)CNCC2CCN(S(=O)(=O)c3ccc(-n4cc(C(=O)O)cn4)cc3)CC2)ccc1O [Example 101, 1-{4-[(4-{[((2R)-2-Hydroxy-2-{4-hydroxy-3-[(methylsulfonyl)amino]-phenyl}ethyl)amino]methyl}piperidin-1-yl)sulfonyl]phenyl}-1H-pyrazole-4-carboxylic Acid] | 43 nM | 0.93
7 | COC(=O)CCc1nc(-c2ccc(S(=O)(=O)N3CCC(CNC[C@H](O)c4ccc(O)c(NS(C)(=O)=O)c4)CC3)cc2)no1 [Example 104, 3-{3-[4-(4-{[(2R)-2-Hydroxy-2-(4-hydroxy-3-methanesulfonylamino-phenyl)-ethylamino]-methyl}-piperidine-1-sulfonyl)-phenyl]-[1,2,4]oxadiazol-5-yl}-propionic Acid Methyl Ester] | 8 nM | 1
8 | COC(=O)c1ccc(N2CCC(CNC[C@H](O)c3ccc(O)c(NS(C)(=O)=O)c3)CC2)nc1 [Example 107, Methyl 6-(4-{[((2R)-2-Hydroxy-2-{4-hydroxy-3-[(methylsulfonyl)amino]phenyl}-ethyl)amino]methyl}piperidin-1-yl)-nicotinate] | 10 nM | 1.2
9 | COC(=O)[C@@H]1CCCN1C(=O)Nc1ccc(S(=O)(=O)N2CCC(CNC[C@H](O)c3ccc(O)c(NS(C)(=O)=O)c3)CC2)cc1 [Example 111, (2S)-1-({4-[(4-{[((2R)-2-Hydroxy-2-{4-hydroxy-3-[(methylsulfonyl)amino]-phenyl}ethyl)amino]methyl}piperidin-1-yl)sulfonyl]anilino}carbonyl)pyrrolidine-2-carboxylic Acid Methyl Ester] | 95 nM | 0.9
10 | CS(=O)(=O)Nc1cc([C@@H](O)CNCC2CCN(S(=O)(=O)c3ccc(NC(=O)N4CCC[C@H]4C(=O)O)cc3)CC2)ccc1O [Example 112, (2S)-1-({4-[(4-{[((2R)-2-Hydroxy-2-{4-hydroxy-3-[(methylsulfonyl)amino]phenyl}-ethyl)amino]methyl}piperidin-1-yl)sulfonyl]anilino}carbonyl)pyrrolidine-2-carboxylic Acid] | 131 nM | 0.93
11 | CC(C)C[C@H](NC(=O)c1ccc(N2CCC(CNC[C@H](O)c3ccc(O)c(NS(C)(=O)=O)c3)CC2)cc1)C(=O)O [Example 114, (2S)-2-{[4-(4-{[((2R)-2-Hydroxy-2-{4-hydroxy-3-[(methylsulfonyl)amino]phenyl}-ethyl)amino]methyl}piperidin-1-yl)benzoyl]amino}-4-methylpentanoic Acid] | 10 nM | 1
12 | O=c1[nH]c2cccc(OC[C@@H](O)CNCC3CCN(S(=O)(=O)c4ccc5ccccc5c4)CC3)c2[nH]1 [Example 157, 4-{[(2S)-2-hydroxy-3-({[1-(2-naphthylsulfonyl)piperidin-4-yl]methyl}amino)propyl]oxy}-1,3-dihydro-2H-benzimidazol-2-one] | 670 nM | 1
13 | CC(C)(C)c1ccc(S(=O)(=O)N2CCC(CNC[C@H](O)c3ccc(O)c(NS(C)(=O)=O)c3)CC2)cc1 [Example 163, N-[5-((1R)-2-{[(1-{[4-(tert-butyl)phenyl]sulfonyl}piperidin-4-yl)-methyl]amino}-1-hydroxyethyl)-2-hydroxyphenyl]-methanesulfonamide] | 40 nM | 0.85

The remaining lines, values ahead:

Row | EC50 | IA(β3) | SMILES
14 | 25 nM | 1 | COC(=O)c1cccc2c1ccn2-c1ccc(S(=O)(=O)N2CCC(CNC[C@H](O)c3ccc(O)c(NS(C)(=O)=O)c3)CC2)cc1 [Example 98, 1-[4-(4-{[(2R)-2-Hydroxy-2-(4-hydroxy-3-methanesulfonylamino-phenyl)-ethyl-amino]-methyl}-piperidine-1-sulfonyl)-phenyl]-1H-indole-4-carboxylic Acid Methyl Ester]
15 | 41 nM | 1 | CCOC(=O)c1cnn(-c2ccc(S(=O)(=O)N3CCC(CNC[C@H](O)c4ccc(O)c(NS(C)(=O)=O)c4)CC3)cc2)c1 [Example 100, Ethyl 1-{4-[(4-{[((2R)-2-Hydroxy-2-{4-hydroxy-3-[(methylsulfonyl)amino]-phenyl}ethyl)amino]methyl}piperidin-1-yl)sulfonyl]phenyl}-1H-pyrazole-4-carboxylate]
16 | 1 nM | 0.97 | CS(=O)(=O)Nc1cc([C@@H](O)CNCC2CCN(c3ccc(S(=O)(=O)N4CCCCC4)cc3)CC2)ccc1O [Example 106, (R)-N-{2-Hydroxy-5-[1-hydroxy-2-({1-[4-(piperidine-1-sulfonyl)-phenyl]-piperidin-4-ylmethyl}-amino)-ethyl]-phenyl}-methanesulfonamide]
18 | 55 nM | 1 | CC(C)c1ccc(S(=O)(=O)N2CCC(CNC[C@H](O)c3ccc(O)c(NS(C)(=O)=O)c3)CC2)cc1 [Example 124, N-(2-hydroxy-5-{(1R)-1-hydroxy-2-[({1-[(4-isopropylphenyl)-sulfonyl]piperidin-4-yl}methyl)amino]ethyl}phenyl)-methanesulfonamide]
19 | 810 nM | 1.34 | Cc1c(C)c(C)c(S(=O)(=O)N2CCC(CNC[C@H](O)c3ccc(O)c(NS(C)(=O)=O)c3)CC2)c(C)c1C [Example 143, N-(2-hydroxy-5-{(1R)-1-hydroxy-2-[({1-[(2,3,4,5,6-pentamethylphenyl)suIfonyl]piperidin-4-yl}methyl)amino]ethyl}phenyl)methanesulfonamide]
20 | 42 nM | 0.76 | CS(=O)(=O)Nc1cc([C@@H](O)CNCC2CCN(S(=O)(=O)c3cccc4ccccc34)CC2)ccc1O [Example 153, N-{2-hydroxy-5-[(1R)-1-hydroxy-2-({[1-(1-naphthylsulfonyl)piperidin-4-yl]methyl}amino)ethyl)phenyl}methanesulfonamide]
21 | 346 nM | 0.85 | CC(C)(C)c1ccc(S(=O)(=O)N2CCC(CNC[C@H](O)COc3ccc(O)cc3)CC2)cc1 [Example 160, 4-[((2S)-3-{[(1-{[4-(tert-butyl)phenyl]sulfonyl}piperidin-4-yl)methyl]amino}-2-hydroxypropyl)oxy]phenol]
22 | 11 nM and 35 nM | 0.64 and 0.94 | CC(C)(C)c1ccc(S(=O)(=O)N2CCC(CNC[C@H](O)COc3cccc4[nH]c(=O)[nH]c34)CC2)cc1 [Example 162, 4-[((2S)-3-{[(1-{[4-(tert-butyl)phenyl]sulfonyl}piperidin-4-yl)methyl]-amino}-2-hydroxypropyl)oxy]-1,3-dihydro-2H-benzimidazol-2-one]
